Measured values as given in patent publication US12454529B2, “Piperazine cyclic ureas” (SIRONAX LTD., priority 2020, dated 2025).
pEC50: −log10 of the molar value.

These compounds were tested on HT-29 cells (assay: HT-29 cell necrosis/necroptosis inhibition (TNF-α + SMAC mimetic + zVAD-FMK; CellTiter-Glo cell viability)). Conditions: Homo sapiens, HT-29, 20 h, read-out: EC50 (Cell activity; Necrosis/Necroptosis Inhibitory Activity, Compounds 1-142).
Format: cell-based
How it was run: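 HT-29 cells (~5,000/well) were switched to FBS-free McCOY's 5A holding TNF-α (10 ng/ml), SMAC mimetic (6 μM) and zVAD-FMK (10 μM), then dosed with a 10-point 1:3 series for 20 h at 37 °C. CellTiter-Glo luminescence gave viability; geometric mean EC50 from duplicates.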

**Q.** `CCn1nc(C)c(-c2nc(N3CCN(C(=O)N4N=CC[C@H]4c4cc(F)cc(F)c4)CC3)ncc2F)c1C` [Compound 117, (S)-(5-(3,5-difluorophenyl)-4,5-dihydro-1H-pyrazol-1-yl)(4-(4-(1-ethyl-3,5-dimethyl-1H-pyrazol-4-yl)-5-fluoropyrimidin-2-yl)piperazin-1-yl)methanone] was tested. Which pEC50 did it give?
**A.** 7.00 to 10.00

Same assay, conditions: Homo sapiens; HT-29 cells, TNF-α 10 ng/ml + SMAC mimetic 6 μM + zVAD-FMK 10 μM, 20 hours; geometric mean, 10 points in duplicate; read-out: EC50 (Cell activity; Necrosis/Necroptosis Inhibitory Activity, Compounds 1-142)

**Q.** `Cc1cc(C(N)=O)cn1-c1nc(N2CCN(C(=O)N3N=CC[C@H]3c3cc(F)cc(F)c3)CC2)ncc1F` [Compound 92, (S)-1-(2-(4-(5-(3,5-difluorophenyl)-4,5-dihydro-1H-pyrazole-1-carbonyl)piperazin-1-yl)-5-fluoropyrimidin-4-yl)-5-methyl-1H-pyrrole-3-carboxamide] was tested. Which pEC50 did it give?
**A.** 7.00 to 10.00

**Q.** How did the pEC50 turn out when `Cc1nc(C#N)nn1-c1nc(N2CCN(C(=O)N3N=CC[C@H]3c3cc(F)cc(C#N)c3)CC2)ncc1F` [Compound 139, (S)-1-(2-(4-(5-(3-cyano-5-fluorophenyl)-4,5-dihydro-1H-pyrazole-1-carbonyl)piperazin-1-yl)-5-fluoropyrimidin-4-yl)-5-methyl-1H-1,2,4-triazole-3-carbonitrile] was run?
**A.** 7.00 to 10.00

**Q.** With `NC(=O)c1cnn(-c2ccnc(N3CCN(C(=O)N4N=CC[C@H]4c4ccccc4)CC3)n2)c1` [Compound 11, (S)-1-(2-(4-(5-phenyl-4,5-dihydro-1H-pyrazole-1-carbonyl)piperazin-1-yl)pyrimidin-4-yl)-1H-pyrazole-4-carboxamide] as the compound, how does the pEC50 read?
**A.** 7.00 to 10.00

**Q.** How did the pEC50 turn out when `NC(=O)Cn1cc(-c2nc(N3CCN(C(=O)N4N=CC[C@H]4c4cc(F)cc(F)c4)CC3)ncc2F)cn1` [Compound 53, (S)-2-(4-(2-(4-(5-(3,5-difluorophenyl)-4,5-dihydro-1H-pyrazole-1-carbonyl)piperazin-1-yl)-5-fluoropyrimidin-4-yl)-1H-pyrazol-1-yl)acetamide] was run?
**A.** 7.00 to 10.00

**Q.** With `Cn1cccc(-c2nc(N3CCN(C(=O)N4N=CC[C@H]4c4cc(F)cc(F)c4)CC3)ncc2F)c1=O` [Compound 88, (S)-3-(2-(4-(5-(3,5-difluorophenyl)-4,5-dihydro-1H-pyrazole-1-carbonyl)piperazin-1-yl)-5-fluoropyrimidin-4-yl)-1-methylpyridin-2(1H)-one] as the compound, how does the pEC50 read?
**A.** 7.00 to 10.00

**Q.** With `Cn1ncnc1-c1nc(N2CCN(C(=O)N3N=CC[C@H]3c3cc(F)cc(C#N)c3)CC2)ncc1F` [Compound 66, (S)-3-fluoro-5-(1-(4-(5-fluoro-4-(1-methyl-1H-1,2,4-triazol-5-yl)pyrimidin-2-yl)piperazine-1-carbonyl)-4,5-dihydro-1H-pyrazol-5-yl)benzonitrile] as the compound, how does the pEC50 read?
**A.** 7.00 to 10.00

**Q.** How did the pEC50 turn out when `Cc1ncc(-c2nc(N3CCN(C(=O)N4N=CC[C@H]4c4cc(F)cc(C#N)c4)CC3)ncc2F)s1` [Compound 57, (S)-3-fluoro-5-(1-(4-(5-fluoro-4-(2-methylthiazol-5-yl)pyrimidin-2-yl)piperazine-1-carbonyl)-4,5-dihydro-1H-pyrazol-5-yl)benzonitrile] was run?
**A.** 7.00 to 10.00

**Q.** `O=C(N1CCN(c2ncc(F)c(-c3cc[nH]n3)n2)CC1)N1N=CC[C@H]1c1cc(F)cc(F)c1` [Compound 7, (S)-(5-(3,5-difluorophenyl)-4,5-dihydro-1H-pyrazol-1-yl)(4-(5-fluoro-4-(1H-pyrazol-3-yl)pyrimidin-2-yl)piperazin-1-yl)methanone] was tested. Which pEC50 did it give?
**A.** 7.00 to 10.00

**Q.** How did the pEC50 turn out when `O=C(N1CCN(c2nccc(-n3nnnc3C(F)(F)F)n2)CC1)N1N=CC[C@H]1c1cccc(F)c1` [Compound 103, (S)-(5-(3-fluorophenyl)-4,5-dihydro-1H-pyrazol-1-yl)(4-(4-(5-(trifluoromethyl)-1H-tetrazol-1-yl)pyrimidin-2-yl)piperazin-1-yl)methanone] was run?
**A.** 7.00 to 10.00

**Q.** `Cn1ncc(-c2nc(N3CCN(C(=O)N4N=CC[C@H]4c4cc(F)cc(C#N)c4)CC3)ncc2F)n1` [Compound 42] was tested. Which pEC50 did it give?
**A.** 7.00 to 10.00

**Q.** `Cc1nn(C)cc1-c1nc(N2CCN(C(=O)N3N=CC[C@H]3c3cc(F)cc(F)c3)CC2)ncc1F` [Compound 14, (S)-(5-(3,5-difluorophenyl)-4,5-dihydro-1H-pyrazol-1-yl)(4-(4-(1,3-dimethyl-1H-pyrazol-4-yl)-5-fluoropyrimidin-2-yl)piperazin-1-yl)methanone] was tested. Which pEC50 did it give?
**A.** 7.00 to 10.00

Same assay, conditions: Homo sapiens; HT-29 cells, TNF-α 10 ng/ml + SMAC mimetic 6 μM + zVAD-FMK 10 μM, 20 hours; geometric mean, 10 points in duplicate; read-out: EC50 (Cell activity; Necrosis/Necroptosis Inhibitory Activity, Compounds 143-323)

**Q.** With `Cc1nn(-c2cc(N3CCN(C(=O)N4N=CC[C@H]4c4cc(F)cc(F)c4)CC3)ncn2)c(C)c1C(N)=O` [Compound 281, (S)-1-(6-(4-(5-(3,5-difluorophenyl)-4,5-dihydro-1H-pyrazole-1-carbonyl)piperazin-1-yl)pyrimidin-4-yl)-3,5-dimethyl-1H-pyrazole-4-carboxamide] as the compound, how does the pEC50 read?
**A.** 7.00 to 10.00

**Q.** How did the pEC50 turn out when `Cc1nc(C)n(-c2nc(N3CCN(C(=O)N4N=CC[C@H]4c4cc(F)cc(F)c4)CC3)ncc2Cl)n1` [Compound 259, (S)-(4-(5-chloro-4-(3,5-dimethyl-1H-1,2,4-triazol-1-yl)pyrimidin-2-yl)piperazin-1-yl)(5-(3,5-difluorophenyl)-4,5-dihydro-1H-pyrazol-1-yl)methanone] was run?
**A.** 7.00 to 10.00

**Q.** With `Cc1nc(CO)nn1-c1nc(N2CCN(C(=O)N3N=CC[C@H]3c3cncc(F)c3)CC2)ncc1F` [Compound 250, (S)-(4-(5-fluoro-4-(3-(hydroxymethyl)-5-methyl-1H-1,2,4-triazol-1-yl)pyrimidin-2-yl)piperazin-1-yl)(5-(5-fluoropyridin-3-yl)-4,5-dihydro-1H-pyrazol-1-yl)methanone] as the compound, how does the pEC50 read?
**A.** 7.00 to 10.00

**Q.** With `Cc1nn(-c2ccnc(N3CCN(C(=O)N4N=CC[C@H]4c4cncc(F)c4)CC3)n2)c(C)c1Cl` [Compound 287, (S)-(4-(4-(4-chloro-3,5-dimethyl-1H-pyrazol-1-yl)pyrimidin-2-yl)piperazin-1-yl)(5-(5-fluoropyridin-3-yl)-4,5-dihydro-1H-pyrazol-1-yl)methanone] as the compound, how does the pEC50 read?
**A.** 7.00 to 10.00

**Q.** `CCn1nc(C)n(-c2nc(N3CCN(C(=O)N4N=CC[C@H]4c4cc(F)cc(C#N)c4)CC3)ncc2F)c1=O` [Compound 183, (S)-3-(1-(4-(4-(1-ethyl-3-methyl-5-oxo-1,5-dihydro-4H-1,2,4-triazol-4-yl)-5-fluoropyrimidin-2-yl)piperazine-1-carbonyl)-4,5-dihydro-1H-pyrazol-5-yl)-5-fluorobenzonitrile] was tested. Which pEC50 did it give?
**A.** 7.00 to 10.00

**Q.** How did the pEC50 turn out when `O=C(N1CCN(c2ncc(F)c(-n3nccc3C(F)(F)F)n2)CC1)N1N=CC[C@H]1c1cccc(F)c1` [Compound 302, (S)-(4-(5-fluoro-4-(5-(trifluoromethyl)-1H-pyrazol-1-yl)pyrimidin-2-yl)piperazin-1-yl)(5-(3-fluorophenyl)-4,5-dihydro-1H-pyrazol-1-yl)methanone] was run?
**A.** 7.00 to 10.00

**Q.** `Cc1nn(-c2cc(N3CCN(C(=O)N4N=CC[C@H]4c4cc(F)cc(C#N)c4)CC3)ncn2)c(C)c1C(N)=O` [Compound 282, (S)-1-(6-(4-(5-(3-cyano-5-fluorophenyl)-4,5-dihydro-1H-pyrazole-1-carbonyl)piperazin-1-yl)pyrimidin-4-yl)-3,5-dimethyl-1H-pyrazole-4-carboxamide] was tested. Which pEC50 did it give?
**A.** 7.00 to 10.00

**Q.** With `Cc1nc(C)n(-c2nc(N3CCN(C(=O)N4N=CC[C@H]4c4cc(F)cc(F)c4)CC3)c(F)cc2F)n1` [Compound 232, (S)-(5-(3,5-difluorophenyl)-4,5-dihydro-1H-pyrazol-1-yl)(4-(6-(3,5-dimethyl-1H-1,2,4-triazol-1-yl)-3,5-difluoropyridin-2-yl)piperazin-1-yl)methanone] as the compound, how does the pEC50 read?
**A.** 7.00 to 10.00

**Q.** How did the pEC50 turn out when `CCn1cnn(-c2nc(N3CCN(C(=O)N4N=CC[C@H]4c4cc(F)cc(C#N)c4)CC3)ncc2F)c1=O` [Compound 200, (S)-3-(1-(4-(4-(4-ethyl-5-oxo-4,5-dihydro-1H-1,2,4-triazol-1-yl)-5-fluoropyrimidin-2-yl)piperazine-1-carbonyl)-4,5-dihydro-1H-pyrazol-5-yl)-5-fluorobenzonitrile] was run?
**A.** 7.00 to 10.00

**Q.** How did the pEC50 turn out when `Cc1nc(C)n(-c2ccnc(N3CCN(C(=O)N4N=CC[C@H]4c4cc(F)cc(C#N)c4)CC3)n2)n1` [Compound 243, (S)-3-(1-(4-(4-(3,5-dimethyl-1H-1,2,4-triazol-1-yl)pyrimidin-2-yl)piperazine-1-carbonyl)-4,5-dihydro-1H-pyrazol-5-yl)-5-fluorobenzonitrile] was run?
**A.** 7.00 to 10.00

**Q.** `Cc1nn(-c2cc(N3CCN(C(=O)N4N=CC[C@H]4c4cncc(F)c4)CC3)ncn2)c(C)c1Cl` [Compound 290, (S)-(4-(6-(4-chloro-3,5-dimethyl-1H-pyrazol-1-yl)pyrimidin-4-yl)piperazin-1-yl)(5-(5-fluoropyridin-3-yl)-4,5-dihydro-1H-pyrazol-1-yl)methanone] was tested. Which pEC50 did it give?
**A.** 7.00 to 10.00

**Q.** With `CCn1c(C)nn(-c2nc(N3CCN(C(=O)N4N=CC[C@H]4c4cc(F)cc(C#N)c4)CC3)ncc2F)c1=O` [Compound 181, (S)-3-(1-(4-(4-(4-ethyl-3-methyl-5-oxo-4,5-dihydro-1H-1,2,4-triazol-1-yl)-5-fluoropyrimidin-2-yl)piperazine-1-carbonyl)-4,5-dihydro-1H-pyrazol-5-yl) fluorobenzonitrile] as the compound, how does the pEC50 read?
**A.** 7.00 to 10.00

**Q.** With `Cc1cnn(C)c1-c1ccc(F)c(N2CCN(C(=O)N3N=CCC3c3ccccn3)CC2)n1` (centres unmarked) [Compound 297, (4-(6-(1,4-dimethyl-1H-pyrazol-5-yl)-3-fluoropyridin-2-yl)piperazin-1-yl)(5-(pyridin-2-yl)-4,5-dihydro-1H-pyrazol-1-yl)methanone] as the compound, how does the pEC50 read?
**A.** 7.00 to 10.00

**Q.** How did the pEC50 turn out when `Cc1nc(C#N)nn1-c1nc(N2CCN(C(=O)N3N=CC[C@H]3c3cc(F)cc(F)c3)CC2)ncc1F` [Compound 254, (S)-1-(2-(4-(5-(3,5-difluorophenyl)-4,5-dihydro-1H-pyrazole-1-carbonyl)piperazin-1-yl)-5-fluoropyrimidin-4-yl)-5-methyl-1H-1,2,4-triazole-3-carbonitrile] was run?
**A.** 7.00 to 10.00
